Common to all, as to type: in vivo
In data set [1] the test system is Echinochloa crus-galli var. crus-galli. Put plainly: Test Example 3: herbicidal effect by application to foliage (Wagner pot, water depth 0.1-0.5 cm). As to conditions: Nineteenth Table; application to foliage; application herbicide amount 320 g/ha. In a few lines:
(§1)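 Plants are raised 14 days from seed in flooded-surface Wagner pots at 25–30 °C, sprayed on stems and leaves with diluted emulsion at a predetermined rate, and rated three weeks on using a 0–5 herbicidal-ratio scale (5 ≥90%).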

In the next data set the test system is Leptochloa chinensis. The data set is described as above. As to conditions: Nineteenth Table; application to foliage; application herbicide amount 320 g/ha. An outline of the steps: as §1
A further data set relates to Abutilon theophrasti. The data set can be described thus: Test Example 4: herbicidal effect by application to foliage (diluvial soil, plastic box). As to conditions: application to foliage; for herbicidal effect, M (Abutilon theophrasti): 320 g/ha. In a few lines:
(§2)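 Plants were grown in sterilized diluvial soil in a greenhouse at 25-30° C for 14 days, then sprayed on stems and leaves with water-diluted emulsion formulation at set rates in g/ha. Weed control and crop injury were scored 3 weeks after treatment on a 0-5 herbicidal-ratio scale, from 0 (≤5%) to 5 (≥90%).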

The next data set has as its system Alopecurus myosuroides. Described as above. As to conditions: application to foliage; for herbicidal effect, J (Alopecurus myosuroides): 320 g/ha. In a few lines:
as §2

For a further data set, the system named is Amaranthus retroflexus. Described as above. As to conditions: application to foliage; for herbicidal effect, N (Amaranthus retroflexus): 320 g/ha. An outline of the steps: as §2
The next data set deals with Apera spica-venti. The description is as above. As to conditions: application to foliage; for herbicidal effect, L (Apera spica-venti.): 320 g/ha. An outline of the steps:
as §2

The next data set deals with Avena fatua. The data set is described as above. As to conditions: application to foliage; for herbicidal effect, I (Avena fatua): 320 g/ha. In a few lines: as §2
The next data set concerns Chenopodium album. The data set is described as above. As to conditions: application to foliage; for herbicidal effect, O (Chenopodium album): 320 g/ha. An outline of the steps: as §2
A further data set deals with Digitaria ciliaris. The description is as above. As to conditions: application to foliage; for herbicidal effect, F (Digitaria ciliaris): 320 g/ha. In a few lines:
as §2

Data set [2] has as its system Echinochloa crus-galli var. crus-galli. Described as above. As to conditions: application to foliage; for herbicidal effect, H (Echinochloa crus-galli var. crus-galli): 320 g/ha. In a few lines:
as §2

Another data set relates to Galium spurium. The description is as above. As to conditions: application to foliage; for herbicidal effect, Q (Galium spurium): 320 g/ha. In a few lines:
as §2

The next data set relates to Lolium multiflorum Lam. The description is as above. As to conditions: application to foliage; for herbicidal effect, K (Lolium multiflorum Lam.): 320 g/ha. An outline of the steps:
as §2

A further data set has as its system Setaria viridis. Described as above. As to conditions: application to foliage; for herbicidal effect, G (Setaria viridis): 320 g/ha. In a few lines:
as §2

In the next data set the test system is Stellaria media. The data set is described as above. As to conditions: application to foliage; for herbicidal effect, P (Stellaria media): 320 g/ha. An outline of the steps: as §2
The next data set has as its system Veronica persica. Described as above. As to conditions: application to foliage; for herbicidal effect, R (Veronica persica): 320 g/ha. In a few lines: as §2
Data set [3] concerns Beta vulgaris ssp. vulgaris. Put plainly: Test Example 4: effect on crop by application to foliage (diluvial soil, plastic box). As to conditions: application to foliage; for effect on crop, f (Beta vulgaris ssp. vulgaris): 320 g/ha. An outline of the steps: as §2
The test system of the next data set is Brassica campestris L. The description is as above. As to conditions: application to foliage; for effect on crop, g (Brassica campestris L.): 320 g/ha. In a few lines: as §2
For another data set, the system named is Glycine max. Described as above. As to conditions: application to foliage; for effect on crop, c (Glycine max): 320 g/ha. In a few lines:
as §2

In a further data set the test system is Triticum aestivum. Described as above. As to conditions: application to foliage; for effect on crop, e (Triticum aestivum): 320 g/ha. An outline of the steps: as §2
Another data set deals with Zea mays. Described as above. As to conditions: application to foliage; for effect on crop, b (Zea mays): 320 g/ha. An outline of the steps:
as §2

Data set [4] has as its system directly sowed Oryza sativa. Described as above. As to conditions: application to foliage; for effect on crop, d (directly sowed Oryza sativa): 320 g/ha. An outline of the steps: as §2
[5] abbreviates: application herbicide amount 320 g/ha.

On to `Cn1nnnc1NC(=O)c1ccc(C(F)(F)F)n2c(C3(C)CC3(Cl)Cl)nnc12` (stereo not drawn) [2-110], for which the “H (herbicidal effect grade)” value in [1] is listed as 5 (Herbicidal ratio of 90% or more (almost completely withered)). In addition, the “D (herbicidal effect grade)” value in the data set with Leptochloa chinensis is recorded as 5 (Herbicidal ratio of 90% or more (almost completely withered)). For the same compound, the “herbicidal effect, M (Abutilon theophrasti)” value with Abutilon theophrasti is 5 (Herbicidal ratio of 90% or more (almost completely withered)). Besides, in the data set with Alopecurus myosuroides, the “herbicidal effect, J (Alopecurus myosuroides)” value was 2 (Herbicidal ratio of 20% or more and less than 40%). Also, in the data set with Amaranthus retroflexus, the “herbicidal effect, N (Amaranthus retroflexus)” value is 5 (Herbicidal ratio of 90% or more (almost completely withered)). In addition, in the data set with Apera spica-venti., the “herbicidal effect, L (Apera spica-venti.)” value was 3 (Herbicidal ratio of 40% or more and less than 70%). In addition, in the data set on Avena fatua, the “herbicidal effect, I (Avena fatua)” value was 3 (Herbicidal ratio of 40% or more and less than 70%). The “herbicidal effect, O (Chenopodium album)” value with Chenopodium album is reported as 5 (Herbicidal ratio of 90% or more (almost completely withered)). Moreover, the “herbicidal effect, F (Digitaria ciliaris)” value in the data set on Digitaria ciliaris is given as 5 (Herbicidal ratio of 90% or more (almost completely withered)). Moreover, the “herbicidal effect, H (Echinochloa crus-galli var. crus-galli)” value in [2] is 5 (Herbicidal ratio of 90% or more (almost completely withered)). Besides, the “herbicidal effect, Q (Galium spurium)” value in the data set with Galium spurium is recorded as 5 (Herbicidal ratio of 90% or more (almost completely withered)). Moreover, the “herbicidal effect, K (Lolium multiflorum Lam.)” value in the data set with Lolium multiflorum Lam. was 3 (Herbicidal ratio of 40% or more and less than 70%). In addition, in the data set with Setaria viridis, the “herbicidal effect, G (Setaria viridis)” value was 4 (Herbicidal ratio of 70% or more and less than 90%). For the same compound, the “herbicidal effect, P (Stellaria media)” value with Stellaria media is 5 (Herbicidal ratio of 90% or more (almost completely withered)). Moreover, the “herbicidal effect, R (Veronica persica)” value in the data set on Veronica persica is reported as 5 (Herbicidal ratio of 90% or more (almost completely withered)). Besides, the “effect on crop, f (Beta vulgaris ssp. vulgaris)” value in [3] was 5 (Herbicidal ratio of 90% or more (almost completely withered)). Besides, the “effect on crop, g (Brassica campestris L.)” value in the data set on Brassica campestris L. is 4 (Herbicidal ratio of 70% or more and less than 90%). For the same compound, the “effect on crop, c (Glycine max)” value in the data set with Glycine max is listed as 0 (Herbicidal ratio of 5% or less (almost no effect)). Besides, the “effect on crop, e (Triticum aestivum)” value in the data set on Triticum aestivum was 3 (Herbicidal ratio of 40% or more and less than 70%). The “effect on crop, b (Zea mays)” value in the data set with Zea mays is 4 (Herbicidal ratio of 70% or more and less than 90%). Further, the “effect on crop, d (directly sowed Oryza sativa)” value in [4] is 4 (Herbicidal ratio of 70% or more and less than 90%).

Consider `C#CCSc1nnc2c(C(=O)Nc3nnnn3C)ccc(C(F)(F)F)n12` [2-103], for which the “H (herbicidal effect grade)” value in data set [1] is 5 (Herbicidal ratio of 90% or more (almost completely withered)). The “D (herbicidal effect grade)” value with Leptochloa chinensis was 5 (Herbicidal ratio of 90% or more (almost completely withered)). Besides, the “herbicidal effect, M (Abutilon theophrasti)” value with Abutilon theophrasti is 4 (Herbicidal ratio of 70% or more and less than 90%). Besides, the “herbicidal effect, J (Alopecurus myosuroides)” value in the data set with Alopecurus myosuroides is listed as 0 (Herbicidal ratio of 5% or less (almost no effect)). The “herbicidal effect, N (Amaranthus retroflexus)” value in the data set with Amaranthus retroflexus is recorded as 5 (Herbicidal ratio of 90% or more (almost completely withered)). Moreover, the “herbicidal effect, L (Apera spica-venti.)” value in the data set on Apera spica-venti. is 2 (Herbicidal ratio of 20% or more and less than 40%). Besides, in the data set with Avena fatua, the “herbicidal effect, I (Avena fatua)” value is 1 (Herbicidal ratio of 5% or more and less than 20%). Further, the “herbicidal effect, O (Chenopodium album)” value with Chenopodium album was 5 (Herbicidal ratio of 90% or more (almost completely withered)). Moreover, in the data set with Digitaria ciliaris, the “herbicidal effect, F (Digitaria ciliaris)” value was 4 (Herbicidal ratio of 70% or more and less than 90%). The “herbicidal effect, H (Echinochloa crus-galli var. crus-galli)” value in data set [2] was 5 (Herbicidal ratio of 90% or more (almost completely withered)). In addition, the “herbicidal effect, Q (Galium spurium)” value in the data set on Galium spurium is 4 (Herbicidal ratio of 70% or more and less than 90%). Further, the “herbicidal effect, K (Lolium multiflorum Lam.)” value in the data set on Lolium multiflorum Lam. was 1 (Herbicidal ratio of 5% or more and less than 20%). Also, the “herbicidal effect, G (Setaria viridis)” value in the data set on Setaria viridis was 3 (Herbicidal ratio of 40% or more and less than 70%). The “herbicidal effect, P (Stellaria media)” value in the data set on Stellaria media is given as 5 (Herbicidal ratio of 90% or more (almost completely withered)). Besides, in the data set on Veronica persica, the “herbicidal effect, R (Veronica persica)” value was 4 (Herbicidal ratio of 70% or more and less than 90%). Moreover, the “effect on crop, f (Beta vulgaris ssp. vulgaris)” value in data set [3] was 5 (Herbicidal ratio of 90% or more (almost completely withered)). Moreover, in the data set with Brassica campestris L., the “effect on crop, g (Brassica campestris L.)” value was 3 (Herbicidal ratio of 40% or more and less than 70%). Moreover, the “effect on crop, c (Glycine max)” value in the data set on Glycine max is 0 (Herbicidal ratio of 5% or less (almost no effect)). Besides, the “effect on crop, e (Triticum aestivum)” value in the data set with Triticum aestivum is given as 0 (Herbicidal ratio of 5% or less (almost no effect)). The “effect on crop, b (Zea mays)” value in the data set with Zea mays was 2 (Herbicidal ratio of 20% or more and less than 40%). For the same compound, the “effect on crop, d (directly sowed Oryza sativa)” value in data set [4] was 4 (Herbicidal ratio of 70% or more and less than 90%).

On to `COc1ccc(N(C)c2nnc3c(C(=O)Nc4nnco4)ccc(C(F)(F)F)n23)cc1` [1-171], for which the “H (herbicidal effect grade)” value in [1] was 4 (Herbicidal ratio of 70% or more and less than 90%). In addition, the “D (herbicidal effect grade)” value with Leptochloa chinensis is 4 (Herbicidal ratio of 70% or more and less than 90%). Further, the “M: herbicidal effect on Abutilon theophrasti” value in the data set with Abutilon theophrasti (setting [5]) was 4 (Herbicidal ratio of 70% or more and less than 90%). The “J: herbicidal effect on Alopecurus myosuroides” value with Alopecurus myosuroides (setting [5]) is 0 (Herbicidal ratio of 5% or less (almost no effect)). The “N: herbicidal effect on Amaranthus retroflexus” value in the data set on Amaranthus retroflexus (setting [5]) was 4 (Herbicidal ratio of 70% or more and less than 90%). Besides, the “L: herbicidal effect on Apera spica-venti.” value in the data set on Apera spica-venti. (setting [5]) was 1 (Herbicidal ratio of 5% or more and less than 20%). Besides, the “I: herbicidal effect on Avena fatua” value in the data set with Avena fatua (setting [5]) is listed as 0 (Herbicidal ratio of 5% or less (almost no effect)). For the same compound, the “O: herbicidal effect on Chenopodium album” value in the data set on Chenopodium album (setting [5]) is listed as 5 (Herbicidal ratio of 90% or more (almost completely withered)). Further, in the data set with Digitaria ciliaris (setting [5]), the “F: herbicidal effect on Digitaria ciliaris” value is 3 (Herbicidal ratio of 40% or more and less than 70%). Further, the “H: herbicidal effect on Echinochloa crus-galli var. crus-galli” value in [2] (setting [5]) is on record as 5 (Herbicidal ratio of 90% or more (almost completely withered)). Further, the “Q: herbicidal effect on Galium spurium” value in the data set with Galium spurium (setting [5]) was 2 (Herbicidal ratio of 20% or more and less than 40%). Also, the “K: herbicidal effect on Lolium multiflorum Lam.” value with Lolium multiflorum Lam. (setting [5]) was 0 (Herbicidal ratio of 5% or less (almost no effect)). Moreover, in the data set on Setaria viridis (setting [5]), the “G: herbicidal effect on Setaria viridis” value was 3 (Herbicidal ratio of 40% or more and less than 70%). Further, the “P: herbicidal effect on Stellaria media” value in the data set with Stellaria media (setting [5]) is recorded as 5 (Herbicidal ratio of 90% or more (almost completely withered)). In the data set with Veronica persica (setting [5]), the “R: herbicidal effect on Veronica persica” value was 3 (Herbicidal ratio of 40% or more and less than 70%). In addition, the “f: effect on crop, Beta vulgaris ssp. vulgaris” value in data set [3] (setting [5]) is 5 (Herbicidal ratio of 90% or more (almost completely withered)). The “g: effect on crop, Brassica campestris L.” value in the data set with Brassica campestris L. (setting [5]) is 3 (Herbicidal ratio of 40% or more and less than 70%). Further, the “d: effect on crop, Glycine max” value in the data set with Glycine max (setting [5]) is 3 (Herbicidal ratio of 40% or more and less than 70%). Moreover, the “e: effect on crop, Triticum aestivum” value in the data set on Triticum aestivum (setting [5]) is on record as 0 (Herbicidal ratio of 5% or less (almost no effect)). In the data set on Zea mays (setting [5]), the “c: effect on crop, Zea mays” value was 0 (Herbicidal ratio of 5% or less (almost no effect)). Also, the “b: effect on crop, directly sowed Oryza sativa” value in [4] (setting [5]) is 0 (Herbicidal ratio of 5% or less (almost no effect)).

The record behind these values is US9708314B2, “Heterocyclic amide compound” (NISSAN CHEMICAL INDUSTRIES, LTD., priority 2013, dated 2017).
